Here are results for eleven molecules from patent US20260043057A1, “ENZYMATIC SYNTHESIS OF MYCOSPORINE-LIKE AMINO ACIDS” (University of Florida Research Foundation, Incorporated, priority 2022, published 2026).

The test system of one series is MysD. Nature of the series: MysD reaction with MG and amino acid substrates (substrate preference). Type of series: biochemical, Nostoc linkia NIES-25. Particulars: for consumption of MG in the MysD reaction: optimal conditions, after 3 h; for consumption level of MG in the MysD reaction relative to that with L-Thr (set as 100%): L-Thr and L-Ser 8 min, other amino acids 30 min, from produced disubstituted MAAs. Here is the method:
The current and previous heterologous expression studies supported the function of MysD in the biosynthesis of disubstituted MAAs (FIG. 3).^29,35 To further characterize its catalytic properties, recombinant His6-tagged MysD of N. linkia NIES-25 was prepared from E. coli after a single affinity purification (FIG. 21). The enzyme reaction was performed with MysD (0.5 μM), MG (50 μM), and L-Thr (1 mM) in the presence of ATP (1 mM) and Mg^2+ (10 mM) at room temperature for 2 h. […] No product was formed in the control reactions without enzyme or ATP (FIG. 5A). The requirement of ATP for the MysD reaction supports its prediction as the D-Ala-D-Ala ligase-like enzyme of the ATP grasp superfamily.^29 The optimal temperature and pH of its reaction were determined at 37° C. and pH=8.5 (FIG. 22). Under these optimal reaction conditions, all 20 natural amino acids were screened (5 mM) along with MG (50 μM) in the MysD reaction. […] LC-HRMS and MS/MS analysis indicated the formation of their corresponding disubstituted MAAs, MG-Ala, MG-Arg (observed [M+H]^+: 402.1977; calculated [M+H]^+: 402.1983), MG-Cys (observed [M+H]^+: 349.1059; calculated [M+H]^+: 349.1064), mycosporine-2-Gly (observed [M+H]^+: 303.1182; calculated [M+H]^+: 303.1187), shinorine, and porphyra-334 (FIGS. 24, 25, and 26). […] Nonetheless, the result of this biochemical study well agreed with the production of porphyra-334 along with small amounts of shinorine and MG-Ala in the above heterologous expression study (FIG. 3C). To further understand MysD's substrate preference, the enzyme concentration was lowered to 0.25 μM. […] The consumed MG level in this reaction was set as 100% to normalize its level in the five other reactions, which was determined from the concentrations of produced disubstituted MAAs in the reactions (FIG. 5C). […] Together, the results of these biochemical studies highlight the broad substrate scope of MysD and its strong preference toward L-Thr in the MAA biosynthesis.
MysD Reaction. MG was purified from extracts of E. coli expressing MysAB2C by HPLC and used as the substrate for the MysD reactions. The quality of MG was calculated based on its reported extinction coefficient (28,100 M^−1cm^−1). The initial MysD reactions included MG (50 μM), L-Thr (1 mM), Mg^2+ (10 mM), and ATP (1 mM) in 100 mM Tris-Cl, pH 7.5. The reactions were initiated by adding MysD (0.5 μM) and then incubated at room temperature for 2 h. The control reactions omitted MysD or ATP. All reactions were quenched by heat inactivation at 95° C. for 10 min. After centrifugation at 20,000×g for 15 min, the clear supernatants were collected for HPLC and LC-HRMS analysis. To determine the optimal reaction conditions, the MysD reaction was performed in 100 mM buffer with a pH of 6.5 to 11 at 16 to 60° C. for 6 min. To explore the substrate scope of MysD, all 20 natural amino acids (5 mM) were screened in the above reaction mixtures under the optimal conditions for 3 h. The reactions were terminated and then analyzed in the HPLC and/or LC-MS analysis. To determine the relative activity of six identified amino acids as MysD's substrates, a two-step strategy was used. First, the reactions were performed with 0.25 μM MysD for 8 min, which led to no more than 50% consumption of MG into porphyra-334 with the best substrate L-Thr and into shinorine with L-Ser. For the other four amino acids, the levels of their corresponding disubstituted MAAs were determined after the reaction time was elongated to 30 min. All reactions were performed in at least two independent replicates.

Series [1] is described as follows: Maximal UV absorbance of MAAs by HPLC with PDA detector. The format is physicochemical. Particulars: compound produced in engineered E. coli, methanolic extract of cell pellets. Here is the method: HPLC and LC-MS Analysis. Samples were analyzed on a Shimadzu Prominence UHPLC system (Kyoto, Japan) coupled with a PDA detector. The compounds were separated on a Phenomenex Luna C8 column (4.6×250 mm, 5 μm) using the following HPLC program: 2% B for 15 min, 2-90% B gradient in 2 min, 90% B for 2 min, 90-2% in 2 min, and re-equilibration in 2% B for 6 min. The A phase was 0.1 M triethylammonium acetate pH 7.0 and the B phase was methanol. The flow rate was set at 0.5 mL/min. In the quantitative analysis of relative activity of MysD with different amino acid substrates, water containing 0.1% formic acid was used as phase A to fully separate MG with MG-Ala. LC-HRMS and HRMS/MS experiments were conducted on Thermo Scientific™ Q Exactive Focus mass spectrometer with Dionex™ Ultimate™ RSLC 3000 uHPLC system, equipped with H-ESI II probe on Ion Max API Source. Methanol (B)/Water (A) containing 0.1% formic acid were used as mobile phases, and the same LC program was used as in the HPLC analysis. The eluents from the first 3 min were diverted to waste by a diverting valve. MS1 signals were acquired under the Full MS positive ion mode covering a mass range of m/z 150-2000, with resolution at 35,000 and AGC target at 1e6. Fragmentation was obtained with the Parallel Reaction Monitoring (PRM) mode using an inclusion list of calculated parental ions. The AGC target was set at 5e4 for MS2. Precursor ions were selected in the quadrapole typically with an isolation width of 3.0 m/z and fragmented in the HCD cell at a collision energy (CE) of 30. For some ions, the isolation width was 2.0 m/z and step-wise CE of 15, 20, and 25 were used.
HPLC and LC-HRMS analysis. Samples were analyzed on a Shimadzu Prominence UHPLC system (Kyoto, Japan) coupled with a PDA detector. Unless stated elsewhere, the following HPLC procedure was performed. The compounds were separated on a Phenomenex Luna C8 column (4.6×250 mm, 5 μm) using the following HPLC program: 2% B for 15 min, 2-90% B gradient in 2 min, 90% B in 2 min, 90-2% in 2 min, and re-equilibration in 2% B for 6 min. The A phase was water with 0.1 M triethylamine acetate (TEAA) at pH 7 and the B phase was methanol. The flow rate was set at 0.5 mL/min. LC-HRMS and HRMS/MS experiments were conducted on a Thermo Scientific Q Exactive Focus mass spectrometer with a Dionex Ultimate RSLC 3000 uHPLC system, equipped with the H-ESI II probe on an Ion Max API Source. Methanol (B)/water (A) containing 0.1% formic acid were used as mobile phases. The eluents from the first 3 min were diverted to waste by a diverting valve. MS1 signals were acquired under the Full MS positive ion mode, covering a mass range of m/z 150-2000, with resolution at 35 000 and AGC target at 1×10^6.

The conditions of series [2]: reported value used to quantify MG; cited from earlier work.
The subject of the next series is MysH. Nature of the series: MysH reaction steady-state kinetics with porphyra-334. Particulars: 20 to 1000 uM porphyra-334, 0.5 uM MysH, room temperature, 30 min, pH 7.5. Type of series: biochemical, Nostoc linckia NIES-25. Here is the method:
To further characterize the catalytic properties of MysH, the recombinant MysH of Nostoc linckia NIES-25 was prepared with a C-terminal His6-tag in E. coli after a single Ni-NTA affinity purification (FIG. 33A). The MysH reaction contained 50 mM Tris-Cl at pH 7.5, 0.5 uM MysH, 50 uM porphyra-334, 1 mM 2-oxoglutarate (2OG), 1 mM Fe(NH4)2(SO4)2, 10 mM ascorbate, and the reaction was performed at room temperature overnight. MysH successfully converted porphyra-334 into palythine-Thr in the HPLC analysis, while the complete conversion was not achieved with a higher enzyme concentration or a longer reaction time. […] To improve the reaction conversion, different concentrations of 2OG, Fe(NH4)2(SO4)2, ascorbate, and shaking speed were tested, but no significant improvement was observed. On the other hand, the inclusion of catalase led to the full conversion of porphyra-334 by MysH (FIG. 33B). The Fe(III)-O—O· species is likely one key intermediate in the MysH reaction. Hydrogen peroxide may be released via […] of Fe(III)-O—O· and inhibit the enzyme reaction.
The optimal MysH reaction conditions were determined to be 50 mM HEPES, pH 7.5, 0.5 uM MysH, 1 mM α-KG, 1 mM ascorbate, 10 uM Fe(NH4)2(SO4)2, and 8 μg/mL catalase. Steady-state kinetic studies were performed with 20 to 1000 uM porphyra-334, and the reactions were carried out at room temperature for 30 min. The reactions followed Michaelis-Menten kinetics (FIG. 34).

As a reminder, the Km is the concentration of substrate that gives half-maximal velocity. One may read the Vmax as the top rate of the reaction or transport when substrate is in excess. As usually defined, the kcat is the number of substrate molecules converted per active site and unit of time at saturation.

In the case of `C[C@@H](O)[C@H](N)C(=O)O` [L-Thr], in the series on MysD (0.25 μM MysD, 50 μM MG, 5 mM amino acid, 8 min, optimal conditions (37° C., pH 8.5)), the “MG converted into porphyra-334” value is on record as “about 40%”. Further, the “consumption of MG in the MysD reaction” value in the series on MysD (5 mM amino acid, 50 μM MG) is “complete consumption of MG”. As for `N[C@@H](CO)C(=O)O` [L-Ser], in the series with MysD (0.25 μM MysD), the “consumption level of MG in the MysD reaction relative to that with L-Thr (set as 100%)” value is “about 12.7%”. Moreover, the “consumption of MG in the MysD reaction” value in the series with MysD (5 mM amino acid, 50 μM MG) is “complete consumption of MG”. `COC1=C(O)CC(O)(CO)CC1=O` (centres unmarked) [4-DG, 4-deoxygadusol] gave a maximal absorbance in series [1] of 294 nm. For the molecule `COC1=C(NCC(=O)O)C[C@@](O)(CO)CC1=O` [MG, mycosporine-glycine], in series [1], the maximal absorbance was found to be 310 nm. Besides, in series [2], the extinction coefficient is given as 28,100 M^−1cm^−1.

For the molecule `N[C@@H](CS)C(=O)O` [L-Cys], the “consumption level of MG in the MysD reaction relative to that with L-Thr (set as 100%)” value in the series with MysD (0.25 μM MysD) is 0.9%.

Consider `COC1=C(N)CC(O)(CO)CC1=NC(CO)C(=O)O` (centres unmarked) [Palythine-Ser, palythine-Ser], for which, in series [1], the maximal absorbance was 320 nm. For `C[C@H](N)C(=O)O` [L-Ala], the “consumption level of MG in the MysD reaction relative to that with L-Thr (set as 100%)” value with MysD (0.25 μM MysD) worked out at 0.4%. With `COC1=C(NCC(=O)O)CC(O)(CO)C/C1=N\C(C)C(=O)O` (centres unmarked) [MG-Ala, mycosporine-glycine-alanine], the maximal absorbance entry in series [1] was “around 334 nm”. In turn, `COC1=C(N)C[C@@](O)(CO)C/C1=N\[C@H](C(=O)O)C(C)O` (some centres unmarked) [palythine-Thr] registered a maximal absorbance in series [1] of 320 nm. Consider `COC1=C(NCC(=O)O)C[C@@](O)(CO)CC1=N[C@H](C(=O)O)[C@@H](C)O` [porphyra-334], for which the maximal absorbance entry in series [1] was “around 334 nm”. Further, in the series with MysH, the Km amounted to 385 µM, the maximum rate (Vmax) turned out to be 0.62 µM/min and the kcat amounted to 0.0207 s⁻¹. mycosporine-amine [M-NH2]: in series [1], the maximal absorbance is reported as 298 nm.
